In patent US20260001889A1, “COMPOSITIONS USEFUL FOR MODULATING SPLICING” (Skyhawk Therapeutics, Inc., priority 2022, published 2026):

How the values were obtained:
[1] = test system: total ATXN3 protein; experiment: ATXN3 Total Protein Assay (Mesoscale Discovery, SK-N-MC cells); format: cell-based, Human; settings: incubation for 48 hours, MSD assay
Procedure: Example 35: ATXN3 Total Protein Assay
Human neuroblastoma SK-N-MC cells were seeded at 10,000 cells/well in 384 well plates one day prior to compound treatment. The concentrations of compounds were tested at appropriate doses ranging from 30 μM to 0.6 nM. After incubation for 48 hours, the cells were lysed with 25 μL of lysis buffer containing protease inhibitors, and total ATXN3 protein levels were assessed by Mesoscale Discovery (MSD) assay developed with one pair of anti-ATXN3 antibodies. The capture and detect antibodies were raised in mouse and rabbit respectively. Anti-rabbit MSD-ST antibody was used for secondary antibody.
ATXN3 recombinant protein was used for standards. The readouts were captured with 35 μL of MSD read buffer and multi-array 384-well high binding plates.

[2] = test system: ATXN3 transcripts containing exon 4; experiment: ATXN3 Quantitative Splicing Assay (qPCR, E4E5 primers/probe); format: cell-based; settings: Homo sapiens, SK-N-MC cells, compounds for 24 h
Procedure: Example 34: ATXN3 Quantitative Splicing Assay
Human neuroblastoma SK-N-MC cells were plated in 384-well plates at 20,000 cells/well. Twenty-four hours after plating, cells were treated with compounds for 24 h at appropriate concentrations ranging from 30 μM to 0.6 nM (0.300 DMSO). Treated cells were lysed in 15 μL of lysis buffer, and cDNA was synthesized using the Fast Advanced Cells-to-Ct kit. Two […] of each cDNA was used in qPCR reactions to confirm the exon 4 skipped transcripts of ATXN3. A second set of primers/probe E4E5 was used to detect the transcripts containing exon 4. The third set of primers/probe E8E9 was used to detect total gene level of ATXN3. The qPCR reactions were prepared in 384-well plates in 10 μL volume, using TaqMan™ Fast Advanced Master Mix with primers and probes shown in the table below. Reactions were run in a Quant Studio 6 qPCR instrument with default settings.
The primers and probes are listed below in Table 4.

[3] = test system: ATXN3-HiBiT protein; experiment: ATXN3 Total Protein Assay (Kelly-ATXN3-HiBiT luminescence); format: cell-based; settings: Kelly-ATXN3-HiBiT cells, 48 h after addition of compound
How it was run: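 Endogenous ATXN3-HiBiT protein in knock-in Kelly neuroblastoma cells measured by lytic HiBiT luminescence 48 h post-compound (added 24 h after seeding 2000 cells/well). Values are fold changes relative to DMSO, with viability from a parallel CellTiter-Glo plate.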

Row | Compound | IC50 [2] | EC50 [3] | IC50 [1]
1 | Cc1c(C[C@H](C)N)oc2c(NCc3ccncc3)cc(Cl)nc12 (single isomer, unassigned) [Compound 3] | 501 to 5000 nM |  | 501 to 5000 nM
2 | Cc1c(C[C@@H](C)N)oc2c(NCc3ccncc3)cc(Cl)nc12 (single isomer, unassigned) [Compound 4] | 5000 to 10000 nM |  | 501 to 5000 nM
3 | CC(N)Cc1cc2nc(Cl)cc(NCc3ccncc3)c2o1 (stereo not drawn) [Compound 1, 2-(2-aminopropyl)-5-chloro-7-{[(4-pyridyl)methyl]amino}-1-oxa-4-azaindene] | 10000 to 40000 nM |  | 10000 to 40000 nM
4 | CC(N)Cc1cc2nc(Cl)cc(NCc3ccccc3)c2o1 (stereo not drawn) [Compound 2, 2-(2-aminopropyl)-7-benzylamino-5-chloro-1-oxa-4-azaindene] | 5000 to 10000 nM |  | 5000 to 10000 nM
5 | Cc1c(CC(C)N)oc2c(NCc3ccncc3)cc(Cl)nc12 (stereo not drawn) [Compound 7, 2-(2-aminopropyl)-5-chloro-3-methyl-7-{[(4-pyridyl)methyl]amino}-1-oxa-4-azaindene] | 501 to 5000 nM |  | 501 to 5000 nM
6 | Cc1c(C[C@H](C)N)oc2c(NCc3ccccc3)cc(Cl)nc12 [Compound 8, 2-[(S)-2-aminopropyl]-7-benzylamino-5-chloro-3-methyl-1-oxa-4-azaindene] | 501 to 5000 nM |  | 501 to 5000 nM
7 | Cc1c(C[C@H](C)N)oc2c(NCc3nccs3)cc(Cl)nc12 [Compound 9, 2-[(S)-2-aminopropyl]-5-chloro-3-methyl-7-{[(1,3-thiazol-2-yl)methyl]amino}-1-oxa-4-azaindene] | 501 to 5000 nM |  | 501 to 5000 nM
8 | Cc1c(C[C@H](C)N)oc2c(NCc3ccco3)cc(Cl)nc12 [Compound 10, 2-[(S)-2-aminopropyl]-5-chloro-7-(furfurylamino)-3-methyl-1-oxa-4-azaindene] | 501 to 5000 nM |  | 501 to 5000 nM
9 | Cc1c(C[C@H](C)N)oc2c(NCc3ccc(F)s3)cc(Cl)nc12 [Compound 12, 2-[(S)-2-aminopropyl]-5-chloro-7-{[(5-fluoro-2-thienyl)methyl]amino}-3-methyl-1-oxa-4-azaindene] | 501 to 5000 nM |  | 501 to 5000 nM
10 | Cc1c(C[C@H](C)N)oc2c(NCc3cccs3)cc(C#N)nc12 [Compound 15, 2-[(2S)-2-aminopropyl]-3-methyl-7-[(thiophen-2-ylmethyl)amino]furo[3,2-b]pyridine-5-carbonitrile] | 501 to 5000 nM |  | 501 to 5000 nM
11 | C[C@H](N)Cc1oc2c(NCc3cccs3)cc(Cl)nc2c1C1CC1 [Compound 19, 2-[(2S)-2-aminopropyl]-5-chloro-3-cyclopropyl-N-(thiophen-2-ylmethyl)furo[3,2-b]pyridin-7-amine] | 101 to 500 nM |  | 101 to 500 nM
12 | C[C@H](N)Cc1oc2c(NCc3ccc(F)cc3F)cc(Cl)nc2c1Br [Compound 350, 2-[(S)-2-aminopropyl]-3-bromo-5-chloro-7-{[(2,4-difluorophenyl)methyl]amino}-1-oxa-4-azaindene] | 501 to 5000 nM | 501 to 5000 nM | 
13 | C[C@H](N)Cc1oc2c(NCc3ccc(Cl)s3)cc(Cl)nc2c1Br [Compound 353, 2-[(S)-2-aminopropyl]-3-bromo-5-chloro-7-{[(5-chloro-2-thienyl)methyl]amino}-1-oxa-4-azaindene] | 501 to 5000 nM | 501 to 5000 nM | 
14 | Cc1c(C[C@H](C)N)oc2c(NCc3cccs3)cc(F)nc12 [Compound 404, 2-[(S)-2-aminopropyl]-5-fluoro-3-methyl-7-thenylamino-1-oxa-4-azaindene] | 101 to 500 nM |  | 

Now from value to compound, other results behind:

Row | IC50 [2] | EC50 [3] | Compound | IC50 [1]
15 | 10000 to 40000 nM |  | Cc1coc2c(NCc3ccncc3)cc(Cl)nc12 [Compound 5, [(4-pyridyl)methyl](5-chloro-3-methyl-1-oxa-4-aza-7-indenyl)amine] | 10000 to 40000 nM
16 | 10000 to 40000 nM |  | Clc1cc(NCc2ccncc2)c2occc2n1 [Compound 6, 5-chloro-N-(pyridin-4-ylmethyl)furo[3,2-b]pyridin-7-amine] | 10000 to 40000 nM
17 | 101 to 500 nM |  | N[C@H](Cc1oc2c(NCc3cccs3)cc(Cl)nc2c1Br)CC(F)(F)F [Compound 24, 2-[(R)-2-amino-4,4,4-trifluorobutyl]-3-bromo-5-chloro-7-thenylamino-1-oxa-4-azaindene] | 101 to 500 nM
18 | 101 to 500 nM |  | N[C@H](Cc1oc2c(NCc3cccs3)cc(Cl)nc2c1Cl)CC1CC1 [Compound 28, 2-[(S)-2-amino-3-cyclopropylpropyl]-3,5-dichloro-7-thenylamino-1-oxa-4-azaindene] | 101 to 500 nM
19 | 101 to 500 nM |  | N[C@H](Cc1oc2c(NCc3ccco3)cc(Cl)nc2c1Cl)CC1CC1 [Compound 29, 2-[(S)-2-amino-3-cyclopropylpropyl]-3,5-dichloro-7-(furfurylamino)-1-oxa-4-azaindene] | 101 to 500 nM
20 | 501 to 5000 nM |  | Cc1c(C[C@@H](N)CC(F)(F)F)oc2c(NCc3cccs3)cc(Cl)nc12 [Compound 30, 2-[(R)-2-amino-4,4,4-trifluorobutyl]-5-chloro-3-methyl-7-thenylamino-1-oxa-4-azaindene] | 501 to 5000 nM
21 | 501 to 5000 nM |  | Clc1cc(NCc2cccs2)c2occ(C3CC3)c2n1 [Compound 32, (thenyl)(5-chloro-3-cyclopropyl-1-oxa-4-aza-7-indenyl)amine] | 501 to 5000 nM
22 | 101 to 500 nM |  | COC[C@H](N)Cc1oc2c(NCc3ccco3)cc(Cl)nc2c1Br [Compound 38, 2-[(R)-2-amino-3-methoxypropyl]-3-bromo-5-chloro-7-(furfurylamino)-1-oxa-4-azaindene] | 0.01 to 100 nM
23 | 0.01 to 100 nM |  | N[C@@H](CF)Cc1oc2c(NCc3ccco3)cc(Cl)nc2c1Br [Compound 39, 2-[(R)-2-amino-3-fluoropropyl]-3-bromo-5-chloro-7-(furfurylamino)-1-oxa-4-azaindene] | 0.01 to 100 nM
24 | 0.01 to 100 nM | 0.01 to 100 nM | C[C@H](N)C(F)(F)c1oc2c(NCc3cccs3)cc(Cl)nc2c1Br [Compound 187, 2-[(S)-2-amino-1,1-difluoropropyl]-3-bromo-5-chloro-7-thenylamino-1-oxa-4-azaindene] | 
25 | 0.01 to 100 nM | 0.01 to 100 nM | C#Cc1c(C[C@@H](N)CCOC(F)F)oc2c(NCc3cccs3)cc(Cl)nc12 [Compound 197, 2-[(S)-2-amino-4-difluoromethoxybutyl]-5-chloro-3-ethynyl-7-thenylamino-1-oxa-4-azaindene] | 
26 | 5000 to 10000 nM | 5000 to 10000 nM | OCc1oc2c(NCc3cccs3)cc(Cl)nc2c1Br [Compound 354, (3-bromo-5-chloro-7-thenylamino-1-oxa-4-aza-2-indenyl)methanol] | 
27 | 10000 to 40000 nM |  | N[C@@H]1COC[C@H]1c1oc2c(NCc3cccs3)cc(Cl)nc2c1Br [Compound 374, 2-[(3S,4S)-4-aminotetrahydro-3-furyl]-3-bromo-5-chloro-7-thenylamino-1-oxa-4-azaindene] | 
28 | 101 to 500 nM |  | N[C@H]1CCC(F)(F)C[C@@H]1c1oc2c(NCc3cccs3)cc(Cl)nc2c1Br [Compound 380, 2-[(1S,2S)-2-amino-5,5-difluorocyclohexyl]-3-bromo-5-chloro-7-thenylamino-1-oxa-4-azaindene] | 
29 | 0.01 to 100 nM |  | C#Cc1c([C@H]2CCCC[C@@H]2N)oc2c(NCc3cccs3)cc(Cl)nc12 [Compound 385, 2-[(1S,2S)-2-aminocyclohexyl]-5-chloro-3-ethynyl-7-thenylamino-1-oxa-4-azaindene] | 
